The numbers were not newly measured in patent publication US20060204571A1, “Stable compositions of bupropion or its pharmaceutically acceptable salts” (Sun Pharmaceutical Industries Limited, priority 2005, published 2006), which cites them from elsewhere.

The conditions of the series: background statement.

For the compound `CC(NC(C)(C)C)C(=O)c1cccc(Cl)c1.Cl` (racemic) [Bupropion hydrochloride, (±)-1-(3-chlorophenyl)-2-[(1,1-dimethylethyl)amino]-1-propanone hydrochloride], the “solubility in water (in words)” value is “water-soluble”.
